Results on 1 compound are retold here after patent US20180221343A1, “PHARMACEUTICAL COMPOSITION FOR PREVENTING OR TREATING MACULAR DEGENERATION” (KOREA RESEARCH INSTITUTE OF CHEMICAL TECHNOLOGY, priority 2011, published 2018).

Series [1] relates to corneal angiogenesis. The experiment in a line: Inhibitory effects against corneal angiogenesis in animal models having corneal damage (subconjunctival injection). The class given is in vivo, Sprague Dawley rats. The conditions noted are these: subconjunctival injection 20 μl; KR 0.3 mg/ml, Avastin 10 mg/ml; 1 week after administration. As for the experimental part:
(§1) The tests were performed by using Sprague Dawley rats (8 weeks old, male) as animals having corneal damage (15 rats for the experiment group; and 1 rat for normal group, respectively). The corneal damage was induced by applying a cotton swab coated with silver nitrate to the surface of the rat corneas, as as to induce a damage having a diameter of 2 mm in the central cornea. On the third day after inducing the corneal damages, we confirmed the establishment of corneal angiogenesis-inducing models and then subconjunctivally injected a solution (20 μl) prepared by dissolving the compound of Preparation Example 23, i.e., (2R,3R,4S)-6-amino-4-[N-(4-chlorophenyl)-N-(1H-imidazol-2-ylmethyl)amino]-3-hydroxy-2-methyl-2-dimethoxymethyl-3,4-dihydro-2H-1-benzopyran (KR-31831) in phosphate buffered saline (PBS) containing 10% PEG 400, in the concentration of 0.3 mg/ml. In case of the control group, the PBS (20 μl) containing 10% PEG 400 was subconjunctivally injected. As a positive control, a solution (20 μl) prepared by dissolving Avastin (used as an angiogenesis inhibitor) in PBS in the concentration of 10 mg/ml was subconjunctivally injected. The evaluations quantifying the photographs of FIG. 1 were performed by using the Image J (NIH, USA) program and the results thereof were shown in FIG. 2.

Series [2] deals with corneal angiogenesis. The experiment in a line: Inhibitory effects against corneal angiogenesis, subconjunctival injection and eye drop-administration. The class given is in vivo, Sprague Dawley rats. As to conditions: subconjunctival injection 20 μl plus eye drop 50 μl; KR 0.3 mg/ml, Avastin 10 mg/ml. As for the experimental part:
as §1, with “In case of the control group, the PBS (20 μl) containing 10% PEG 400 was subconjunctivally injected. As a positive control, a solution (20 μl) prepared by dissolving Avastin (used as an angiogenesis inhibitor) in PBS in the concentration of 10 mg/ml was subconjunctivally injected.” left out
Except for performing both the subconjunctival injection and the eye drop-administration of (2R,3R,4S)-6-amino-4-[N-(4-chlorophenyl)-N-(1H-imidazol-2-ylmethyl)amino]-3-hydroxy-2-methyl-2-dimethoxymethyl-3,4-dihydro-2H-1-benzopyran and Avastin, the inhibitory effects against angiogenesis were evaluated according to the same manners as in Example 1. […]

Series [3] in a line: Retinal delivery of eye drop formulation (levels in ocular tissues and plasma). The class given is in vivo, Rats. As to conditions: eye drop 50 μl of Formulation Example 1. As for the experimental part:
We evaluated whether the eye drop formulation containing (2R,3R,4S)-6-amino-4-[N-(4-chlorophenyl)-N-(1H-imidazol-2-ylmethyl)amino]-3-hydroxy-2-methyl-2-dimethoxymethyl-3,4-dihydro-2H-1-benzopyran is penetrated through the cornea and then delivered to the retina. Rats (8 weeks old) were used in the test; and the eye drop formulation (50 μl) prepared in the following Formulation Example 1 was dropped on each rat's eye.

In series [4] the test system is rat corneal epithelial wound. The series can be described thus: Corneal Wound Healing Assay (2). The class given is in vivo, SD rats. The conditions noted are these: topical 3 and 6 mg/ml every 6 hour; observed at 0 and 18 hours. As for the experimental part:
SD rats (male, 8 weeks, 250 g) were used. Animal study protocol was in accordance with the Association for Research in Vision and Ophthalmology Statement for the Use of Animals in Ophthalmic and Visual Research. All animals were housed in individual cages and maintained under standard conditions (12 hour light-dark cycle).
Rats were anesthetized by Zoletil® (50 mg/kg, Tiletamina 25 mg, Zolazepam 25 mg; Vibrac, Carros, France) and Rompun® (10 mg/kg, Bayer, France). The cornea was anesthetized by topical 0.5% proparacaine (Alcaine®; Alcon, Fort Worth, Tex., USA). After applying 0.5% proparacaine drops, 5.0 mm Trephine Blade® (Katena, Denville, N.J., USA) was placed and fixed firmly on the corneal surface. One drop of 20% ethanol were put into the tephine well and left in place for 30 seconds, then absorbed with a dry cellulose sponge (Merocel®; Medtronic Solan, Jacksonville, Fla., USA) and irrigated with normal saline. And the epithelium was removed in 6.0 mm diameter.
The drugs were each topically applied in 3 mg/ml (0.3%) and 6 mg/ml (0.6%) concentrations (in 5% DMSO, 10% PEG (Mw 400) and 85% saline (0.9% NaCl)) in every 6 hour, respectively.
The corneal wounds were captured by digital camera under cobalt blue light and the defect area was analyzed by Image J software (Ver 4.1, NIH). The significance between Vehicle and each group was analyzed by paired T-test, and the significance of the test was analyzed by One Way ANOVA analysis.

Turning to `COC(OC)[C@]1(C)Oc2ccc(N)cc2[C@H](N(Cc2ncc[nH]2)c2ccc(Cl)cc2)[C@H]1O` [KR-31831, (2R,3R,4S)-6-amino-4-[N-(4-chlorophenyl)-N-(1H-imidazol-2-ylmethyl)amino]-3-hydroxy-2-methyl-2-dimethoxymethyl-3,4-dihydro-2H-1-benzopyran], the “corneal angiogenesis in comparison with the corneal angiogenesis (100%) of the control group” value with corneal angiogenesis [1] turned out to be 52.6±10%. For the same compound, the “angiogenesis in comparison with the angiogenesis (100%) of the control group” value in the series with corneal angiogenesis [2] amounted to 25.1±10.8%. In series [3] (30 minutes), the “level in Aqueous humor” value was found to be 1250 ng/mL, the “level in Retina” value came to 846 ng/mL and the “level in Vitreous humor” value amounted to 195 ng/mL. Besides, in series [3] (120 minutes), the “level in Aqueous humor” value was found to be 827 ng/mL, the “level in Plasma” value turned out to be 0.9 ng/mL, the “level in Retina” value came to 225 ng/mL and the “level in Vitreous humor” value turned out to be 194 ng/mL. Moreover, the “inhibitory effect on normal healing of rat corneal epithelial wound” value in series [4] is given as “did not show inhibitory effect”.
